Consider 4 substances from US8592374B2, “Neurotrophic peptides” (Research Foundation for Mental Hygiene, Inc., priority 2007, dated 2013).

In experiment [1] the test system is neural progenitor cells of the dentate gyrus. As to the kind of experiment: Stereological counts of BrdU-IR cells in subregions of the hippocampus, 30-day pellets. Type of experiment: in vivo, mice. As to the method:
All in vivo studies for characterization of peptides (stereology and behavioral analysis) were performed on 8-10-month-old female retired breeders of C57Bl6 background. The animals were acclimatized for at least 3 weeks to exclude occasional pregnant mice from the studies. Mice were group-housed (3 animals per cage) with a 12:12 light:dark cycle and with free access to food and water. All procedures were conducted in accordance with approved protocols from our institutional Animal Welfare Committee.
(§1) To study neurogenesis, mice received subcutaneous implants of extended release depot pellets containing either CNTF peptides 6a or 6c for 30 days of continuous dosing (Innovative Research of America, Sarasota, Fla.). For control groups, the pellets consisted of the carrier biopolymer only. For implantation, the mice were anesthetized with 2.5% Avertin (0.38 ml for a 25 g animal). Under sterile conditions, the pellets were then subcutaneously implanted along the anterolateral aspect of the right shoulder with a precision trochar (Innovative Research of America). The animals were then transferred to the animal colony after recovery from anesthesia. There were no complications associated with the implantation and treatment. BrdU was given as two daily i.p. injections (100 mg/kg/dose) for five days starting on day 2 of peptide treatment. Neurogenesis was assessed in the dentate gyrus (DG) by counting the number of BrdU-immunoreactive (BrdU-IR), BrdU-DCX-IR and BrdU-NeuN-IR cells in various layers of the DG. Employing principles of unbiased stereology, the optical fractionator method was used to estimate cell counts for the DG.
At the end of treatment, all animals were anesthetized with an overdose of sodium pentobarbital and transcardially perfused with 0.1 M PBS. After perfusion, the brains were removed from the skull, the left hemisphere was immediately frozen for future biochemical analysis and the right hemisphere was fixed in 4% paraformaldehyde in 0.1 M PBS for at least 24 hours at room temperature. Tissues were then stored in 30% sucrose solutions at 4° C. until sectioning. The brains were sectioned sagittaly on a freezing sliding microtome at […] through the entire hippocampus and the sections were stored in glycol anti-freeze solution (Ethylene glycol, glycerol and 0.1 M PBS in 3:3:4 ratio) at −20° C. till further processing.
(§2) Immunohistochemistry was performed as described elsewhere (Kuhn et al., J. Neurosci 17 (15) (1997): 5820-5829). Briefly, every 5th brain section was chosen for quantification of cell number and every 10th section was chosen for staining intensity scanning. Immunohistochemistry was performed on free floating sections. For BrdU immunohistochemistry, epitope retrieval and staining were performed as previously described (Kuhn et al., J. Neurosci 17 (15) (1997): 5820-5829).
Neurogenesis was assessed in the DG by counting the number of BrdU-immunoreactive (BrdU-IR), BrdU-DCX-IR and BrdU-NeuN-IR cells in various layers of the DG. The granule cell layer (GCL) was subdivided into an inner and outer half (iGCL and oGCL). The iGCL consisted of the subgranular zone (SGZ, defined as a 2-3 nuclei thick layer bordering the GCL) and the inner half of the GCL adjacent to the Hilus (Hil); the outer GCL (oGCL) was defined as the half of the GCL adjacent to the Molecular layer (Mol). A cell in the middle of the GCL was considered part of the iGCL and a cell bordering the GCL in the Mol was included in oGCL counts. […] Hil included the superficial polymorphic layer.
All sections were collected using the random uniform sampling scheme. For BrdU-IR cells, counting was performed on every 5th section using 40× oil objective of a Nikon 90i fluorescent microscope equipped with Nikon C1 three laser confocal system and a Nikon DS U1 digital camera. Employing principles of unbiased stereology, the optical fractionator method was used to estimate cell counts for the DG (West et al., Anat Rec 231 (1991): 482-497). […]

Experiment [2] concerns granule cell layer of the dentate gyrus. Briefly: Stereological counts of DCX-, BrdU-NeuN- and c-Fos-NeuN-IR cells in the granule cell layer. It counts as in vivo, mice. Here is the method: as §1
The following primary antibodies were used for immunohistochemistry: anti-BrdU (1:400; Accurate) a rat monoclonal raised against BrdU; anti-DCX (1:200; Santa Cruz Biotechnology Inc.), a goat polyclonal antibody raised against an 18-amino acid peptide representing residues […] of human doublecortin; anti-NeuN (1:500; Chemicon), a mouse monoclonal antibody raised against purified cell nuclei from mouse brain; Anti-c-Fos (Ab-5) (1:500; Calbiochem), a rabbit polyclonal antibody raised against a synthetic peptide corresponding to amino-acids 4-17 of human c-Fos; SMI52 (1:1000; Sternberger Monoclonals), a mouse monoclonal antibody specific for the mature neuronal marker MAP2a,b; anti-synaptophysin, SYN (1:200; Chemicon), a mouse monoclonal antibody raised against vesicular fraction of bovine brain. The following secondary antibodies were used: Alexa 488-conjugated goat anti-mouse IgG antibody and Alexa 594-conjugated goat anti-rabbit or anti-rat IgG antibody (Molecular Probes); biotinylated anti-rat IgG antibody and Cy5-conjugated goat anti-mouse antibody (Jackson ImmunoResearch).
as §2
For BrdU-DCX-, BrdU-NeuN-, and c-Fos-NeuN-IR cells, only GCL (consisting of iGCL and oGLC described above) was counted using 100× oil objective in every 10th section. To ensure objectivity, z-stacks were collected for each double IR cell and analyzed later by generating maximum projection and 3D constructs.

A further experiment deals with normal adult mice. Briefly: Morris Water Maze task, CNTF 6a / CNTF 6c pellets 30 days. Type of experiment: in vivo. As to the method:
For behavioral studies, performance on the Morris Water Maze task was assessed in three groups of 10 mice each (placebo, CNTF6a and CNTF6c) which received peptide treatment for 30 days. To avoid daily stress due to injections, all animals undergoing behavioral studies received subcutaneous implants of CNTF 6a, CNTF 6c or placebo pellets as described above.
All animals for behavioral testing were coded such that the experimentator was blind to the assignment of the animals to specific treatment groups. The Morris Water Maze procedure was performed using a 110 cm diameter circular tank. Before training, the mice were handled gently for 2-3 min/day during 3 days to minimize non-specific stress. Acquisition was started with the submerged (invisible) escape platform in the North-East quadrant and each animal was given 60 sec to find the submerged escape platform. […] Five such acquisition trials were given on each day, for four consecutive days. A test for retention, or probe trial, was given 24 hours later. During the probe trial the mouse was allowed to swim in the tank without the escape platform for 60 seconds. This was followed by second and third probe trials 15 and 30 days from the first probe trial. Each probe trial was immediately followed by a “retraining session” consisting of 5 trials/animal to consolidate learned behavior.
The measures of learning were the time and distance swum to reach the escape platform. For retention during the probe trial, the tank was divided into four imaginary quadrants and a small zone where the escape platform had been (virtual platform). The measures of retention were the percent of time spent and the percent of distance swum in each quadrant, and the number of entries into the platform zone.
Mouse behavior in the Morris Water Maze was monitored by a Samsung Digital Camera (SDC 4304) mounted to the ceiling and tracked and timed by a SMART (Pan Lab/San Diego Instruments) version 2.0.14 software.
Since normal adult mice were used as experimental animals, it was crucial not to miss any effect on memory acquisition and learning that the 30-day peptide treatment might have had. Therefore, a partial training paradigm was used to evaluate learning and memory in the Morris Water Maze. Treated mice were trained on the Morris Water Maze for a total of 20 sessions spanning 4 days after which they were subjected to the first probe trial (P1). Two additional probe trials (P2 and P3) were administered 15 and 30 days after P1. […] Learning was evaluated in terms of latency and distance traveled to reach the invisible escape platform. Retention was measured on probe trials by the percent of time and travel distance in the target quadrant, and the number of crossings of the virtual platform.

Experiment [3] relates to dentate gyrus progenitor cells. As to the kind of experiment: Cell proliferation (BrdU labeled cells) in the dentate gyrus of mice given CNTF peptides i.p. Type of experiment: in vivo. Conditions: for proliferation of dentate gyrus progenitor cells: BrdU labeling, 8-10 month old female C57BL6 mice.
Excerpt: (§3) All experiments involving mice were done on 8-10 month old female retired breeders of C57BL6 background. A total of 33 mice were divided into 10 groups of 3 animals each (except control group which had 6 mice). The groups are described in Table 1. Details of CNTF peptides are described in Table 2.
(§4) The animals were kept in groups of 3 per cage. The mice were given daily intraperitoneal injections of four CNTF peptides either separately or in a mixture for 2 weeks as described in Table 1. From day 2, BrdU (Bromodeoxyuridine; 150 mg/Kg) was added to the injections. The animals were sacrificed 24 hours after the last injection. Briefly, the animals were perfused transcardially with PBS and their brains taken out and dissected into halves. One hemisphere from each animal was frozen for biochemical analysis and the other was fixed in 4% paraformaldehyde for 48 hours followed by equilibration in 30% sucrose in PBS overnight. These were then processed for immunohistochemistry.
Fixed tissues were cut into 40 μm sections on a freezing sliding microtome. One in 5 sections per brain was processed for BrdU staining and visualized by immunoflorecence. Cell counting was done on these sections to determine the number of BrdU labeled cells (representing newly born cells) in the dentate gyrus of the hippocampus. The area of counting was limited to the granule cell layer and the subgranular zone (a two-nucleus thick layer adjacent to the granule cell layer). For counting purposes, the dentate gyrus was divided into two areas, the outer granule cell layer (oGCL) consisting of one half of the granule cell layer, and the subgranular zone (SGZ) of the inner half (towards the hilus) of the granule cell layer plus a two-nucleus thick layer adjacent to the outer border of the hilus. Cell counting was done on confocal images of the sections according to the optical dissector principle. Volumetric analysis was carried out with the help of Image Pro software.
as §4, with “table” for “Table”, “injection (FIG. 1).” for “injection.”
(§5) Fixed tissues were cut into 40 μm sections on a freezing sliding microtome. One in 5 sections per brain was processed for BrdU staining and visualized by immunoflorecence. Cell counting was done on these sections to determine the number of BrdU labeled cells (representing newly born cells) in the dentate gyrus of the hippocampus. The area of counting was limited to the granule cell layer and the subgranular zone (a two-nucleus thick layer adjacent to the granule cell layer). For counting purposes, the dentate gyrus was divided into two areas, the outer granule cell layer (oGCL) consisting of out half of the granule cell layer, and the […] comprising of the inner half (towards the hilus) of the granule cell layer plus a two-nucleus thick layer adjacent to the outer border of the hilus. Cell counting was done on confocal images of the sections according to the optical dissector principle. Volumetric analysis was carried out with the help of Image Pro software.
(In general: Dividing cells build labelled thymidine or BrdU into new DNA.)

Experiment [4] concerns dentate gyrus progenitors. Briefly: DCX expression in BrdU labeled progenitors in the dentate gyrus. It counts as in vivo, mice. Conditions: 14 day treatment group.
Excerpt: as §3
as §4, with “table” for “Table”, “injection (FIG. 1).” for “injection.”
as §5

[5] abbreviates: 30-day treated mice (n = 5/group).
The mark [6] stands for this setting: daily i.p. injections for 2 weeks.
[7] abbreviates: both concentrations (0.5 and 5 nmoles/animal).

Turning to “V-G-D-G (VGDG; neurotrophic and/or neurogenic peptide) [CNTF 6a]”, the “BrdU-IR cell numbers in the four sub-regions of the DG” value in experiment [1] (30-day pellets) is listed as “no effect”. For the same substance, the “increase of BrdU-IR cell counts in the GCL compared to placebo” value in experiment [1] (30-day pellets, 50 nmol/peptide/animal/day) was “not significant effect”. In addition, in experiment [1] (setting [5]), the “Stereological counts (±SEM) of BrdU-IR cells, GCL” value was found to be 493 ± 28; the “Stereological counts (±SEM) of BrdU-IR cells, Hil” value turned out to be 126 ± 8; the “Stereological counts (±SEM) of BrdU-IR cells, Mol” value was 538 ± 99; the “Stereological counts (±SEM) of BrdU-IR cells, iGCL” value came to 382 ± 15. Further, in experiment [1] (setting [5]), the “Stereological counts (±SEM) of BrdU-IR cells, oGCL” value was 110 ± 13. In addition, in experiment [2] (setting [5]), the “Stereological counts (±SEM) of cells expressing DCX in the granule cell layer” value came out at 360 ± 33 and the “Stereological counts (±SEM), NeuN-BrdU/BrdU in the granule cell layer” value is given as 19 ± 2. Besides, in experiment [2] (30-day treated mice (n = 5/group), basal activity), the “Stereological counts (±SEM) of c-fos-NeuN cells in the granule cell layer” value amounted to 214 ± 27. In experiment [2] (30-day treatment), the “increase in BrdU-NeuN-IR cells in the GCL compared with placebo” value is on record as “no effect” and the “increase of DCX-IR cells in the GCL compared to placebo” value is given as “did not show any significant difference”. Moreover, the “learning in the spatial reference memory task (swim latencies)” value with normal adult mice (30-day pellets, 20 training sessions over 4 days) was “no effect”. For the same substance, the “percent time spent in the target quadrant across three probe trials” value in the experiment with normal adult mice (P1, P2, P3) was “reduced this time during subsequent P2 and P3”.

Consider “EDQQVHFTPTEG (neurotrophic and/or neurogenic peptide) [Peptide 9]”, for which, in experiment [3] (0.5 nmoles/animal), the “cell proliferation in the SGZ” value is given as “increased cell proliferation”. Moreover, in experiment [3] (setting [6]), the “proliferation of dentate gyrus progenitor cells” value is given as “statistically significant increase”. The “differentiation of dentate gyrus progenitors into DCX (doublecortin) expressing cells” value (“differentiation” below) in experiment [4] was “did not have any effect”.

Consider “IPRNEADGMPINV (neurotrophic and/or neurogenic peptide) [Peptide 5]”, for which, in experiment [3] (setting [7]), the “cell proliferation in the SGZ (subgranular zone)” value is reported as “increased cell proliferation” and the “cell proliferation in the oGCL (outer portion of the granule cell layer)” value was “increased cell proliferation”. In addition, in experiment [3] (setting [6]), the “proliferation of dentate gyrus progenitor cells compared with Peptide 9” value is reported as “more proliferation than Peptide 9” and the “proliferation of dentate gyrus progenitor cells” value is reported as “statistically significant increase”. The “differentiation” value in experiment [4] is “did not have any effect”.

In the case of “CHQGCGGLFEC [Peptide 10, CNTF loop peptide, used as control]”, the “proliferation of dentate gyrus progenitor cells” value in experiment [3] (setting [6]) is “no effect”. For the same substance, in experiment [4], the “differentiation” value is given as “did not have any effect”.
